Here are results for 25 compounds from patent US20160326142A1, “PYRAZOLE CARBOXAMIDE COMPOUNDS, COMPOSITIONS AND METHODS OF USE” (Genentech, Inc., priority 2012, published 2016).

The target of the assay is T1, ITK (Homo sapiens, UniProt Q08881).
T1 construct: purchased Invitrogen PV3875
T1 sequence (Q08881 1-620): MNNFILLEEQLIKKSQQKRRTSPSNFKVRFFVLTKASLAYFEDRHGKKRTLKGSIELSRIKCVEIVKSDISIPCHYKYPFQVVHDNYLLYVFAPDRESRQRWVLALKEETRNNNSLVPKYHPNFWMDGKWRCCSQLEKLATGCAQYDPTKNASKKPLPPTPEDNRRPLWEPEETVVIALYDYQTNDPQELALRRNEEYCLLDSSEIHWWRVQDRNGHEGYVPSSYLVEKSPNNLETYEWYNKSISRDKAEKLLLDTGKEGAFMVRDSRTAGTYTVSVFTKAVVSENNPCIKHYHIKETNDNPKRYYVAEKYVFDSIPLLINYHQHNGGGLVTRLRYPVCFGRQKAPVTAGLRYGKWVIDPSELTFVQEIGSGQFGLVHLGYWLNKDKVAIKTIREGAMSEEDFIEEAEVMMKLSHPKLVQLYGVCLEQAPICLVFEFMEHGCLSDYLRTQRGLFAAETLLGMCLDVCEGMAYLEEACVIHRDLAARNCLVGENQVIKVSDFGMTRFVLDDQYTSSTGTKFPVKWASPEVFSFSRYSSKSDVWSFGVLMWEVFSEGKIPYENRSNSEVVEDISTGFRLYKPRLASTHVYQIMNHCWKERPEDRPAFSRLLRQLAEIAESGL
As to the kind of experiment: ITK enzyme assay (Caliper or LCMS peptide phosphorylation). The format is biochemical. To be noted: purified ITK (Invitrogen PV3875), 20 μM ATP, Ki by Morrison's quadratic equation. Put shortly: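 Ki values come from Morrison quadratic fits of activity versus inhibitor concentration, adjusted for ATP-competitive inhibition against ATP/Km,app. Substrate and phosphopeptide from purified ITK reactions were resolved either microfluidically (Caliper, EDTA stop) or by LC-MS MRM (TCA stop).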
Broadly, the Ki is a dissociation constant, usually derived from enzyme kinetics or from competition with a known ligand. A low value points to higher affinity. Turning to `Cc1nnc(C(C)n2cc(NC(=O)c3n[nH]c4c3CCC(C)(C)C4)cn2)o1` (single isomer, unassigned) [Example 101b, 6,6-dimethyl-N-(1-(1-(5-methyl-1,3,4-oxadiazol-2-yl)ethyl)-1H-pyrazol-4-yl)-4,5,6,7-tetrahydro-1H-indazole-3-carboxamide], the affinity, expressed as Ki, was 12 nM. In turn, `CC1(C#N)CCc2c(C(=O)Nc3cnn(Cc4ccccc4)c3)n[nH]c2C1` (single isomer, unassigned) [Example 102a, N-(1-benzyl-1H-pyrazol-4-yl)-6-cyano-6-methyl-4,5,6,7-tetrahydro-1H-indazole-3-carboxamide] yielded a Ki of 300 nM.

In the case of `CC1(C#N)CCc2c(C(=O)Nc3cnn(Cc4ccccc4)c3)n[nH]c2C1` (single isomer, unassigned) [Example 102b, N-(1-benzyl-1H-pyrazol-4-yl)-6-cyano-6-methyl-4,5,6,7-tetrahydro-1H-indazole-3-carboxamide], affinity was put at a Ki of 10 nM. The same measure for `CC(c1ncco1)n1cc(NC(=O)c2n[nH]c3c2CCC(C)(C)C3)cn1` (single isomer, unassigned) [Example 103a, 6,6-dimethyl-N-(1-(1-(oxazol-2-yl)ethyl)-1H-pyrazol-4-yl)-4,5,6,7-tetrahydro-1H-indazole-3-carboxamide]: 20 nM. Turning to `CC(c1ncco1)n1cc(NC(=O)c2n[nH]c3c2CCC(C)(C)C3)cn1` (single isomer, unassigned) [Example 103b, 6,6-dimethyl-N-(1-(1-(oxazol-2-yl)ethyl)-1H-pyrazol-4-yl)-4,5,6,7-tetrahydro-1H-indazole-3-carboxamide], the affinity corresponds to a Ki of 9 nM. The same measure for `O=C(Nc1cnn(Cc2ccccc2)c1)c1n[nH]c2c1CCC1(CCCC1=O)C2` (single isomer, unassigned) [Example 105a, N-(1-benzyl-1H-pyrazol-4-yl)-2-oxo-1′,4′,5′,7′-tetrahydrospiro[cyclopentane-1,6′-indazole]-3′-carboxamide]: 3 nM; for `O=C(Nc1cnn(Cc2ccccc2)c1)c1n[nH]c2c1CCC1(CCCC1=O)C2` (single isomer, unassigned) [Example 105b, N-(1-benzyl-1H-pyrazol-4-yl)-2-oxo-1′,4′,5′,7′-tetrahydrospiro[cyclopentane-1,6′-indazole]-3′-carboxamide]: 240 nM. For `CC(c1cccnc1)n1cc(NC(=O)c2n[nH]c3c2CCC(C)(C)C3)cn1` (single isomer, unassigned) [Example 106a, 6,6-dimethyl-N-(1-(1-(pyridin-3-yl)ethyl)-1H-pyrazol-4-yl)-4,5,6,7-tetrahydro-1H-indazole-3-carboxamide] the value was 3 nM; for `CC(c1cccnc1)n1cc(NC(=O)c2n[nH]c3c2CCC(C)(C)C3)cn1` (single isomer, unassigned) [Example 106b, 6,6-dimethyl-N-(1-(1-(pyridin-3-yl)ethyl)-1H-pyrazol-4-yl)-4,5,6,7-tetrahydro-1H-indazole-3-carboxamide], 5 nM. The same measure for `CC(c1ccncc1)n1cc(NC(=O)c2n[nH]c3c2CCC(C)(C)C3)cn1` (single isomer, unassigned) [Example 107a, 6,6-dimethyl-N-(1-(1-(pyridin-4-yl)ethyl)-1H-pyrazol-4-yl)-4,5,6,7-tetrahydro-1H-indazole-3-carboxamide]: 18 nM.

In the case of `CC(c1ccncc1)n1cc(NC(=O)c2n[nH]c3c2CCC(C)(C)C3)cn1` (single isomer, unassigned) [Example 107b, 6,6-dimethyl-N-(1-(1-(pyridin-4-yl)ethyl)-1H-pyrazol-4-yl)-4,5,6,7-tetrahydro-1H-indazole-3-carboxamide], the Ki was determined as 14 nM. For `CC(c1cncc(F)c1)n1cc(NC(=O)c2n[nH]c3c2CCC(C)(C)C3)cn1` (single isomer, unassigned) [Example 108a, N-(1-(1-(5-fluoropyridin-3-yl)ethyl)-1H-pyrazol-4-yl)-6,6-dimethyl-4,5,6,7-tetrahydro-1H-indazole-3-carboxamide] the value was 17 nM. For `CC(c1cncc(F)c1)n1cc(NC(=O)c2n[nH]c3c2CCC(C)(C)C3)cn1` (single isomer, unassigned) [Example 108b, N-(1-(1-(5-fluoropyridin-3-yl)ethyl)-1H-pyrazol-4-yl)-6,6-dimethyl-4,5,6,7-tetrahydro-1H-indazole-3-carboxamide] the value was 5 nM; for `COc1ccc(C(C)n2cc(NC(=O)c3n[nH]c4c3CCC(C)(C)C4)cn2)cn1` (single isomer, unassigned) [Example 109a, N-(1-(1-(6-methoxypyridin-3-yl)ethyl)-1H-pyrazol-4-yl)-6,6-dimethyl-4,5,6,7-tetrahydro-1H-indazole-3-carboxamide], 4 nM.

In the case of `COc1ccc(C(C)n2cc(NC(=O)c3n[nH]c4c3CCC(C)(C)C4)cn2)cn1` (single isomer, unassigned) [Example 109b, N-(1-(1-(6-methoxypyridin-3-yl)ethyl)-1H-pyrazol-4-yl)-6,6-dimethyl-4,5,6,7-tetrahydro-1H-indazole-3-carboxamide], the Ki was found to be 21 nM. In turn, `CC1(C)CCc2c(C(=O)Nc3cnn(C(c4cccc(C#N)c4)C4CCS(=O)(=O)CC4)c3)n[nH]c2C1` (single isomer, unassigned) [Example 110a, N-(1-((3-cyanophenyl)(1,1-dioxidotetrahydro-2H-thiopyran-4-yl)methyl)-1H-pyrazol-4-yl)-6,6-dimethyl-4,5,6,7-tetrahydro-1H-indazole-3-carboxamide] yielded a Ki of 0.2 nM. Compound `CC1(C)CCc2c(C(=O)Nc3cnn(C(c4cccc(C#N)c4)C4CCS(=O)(=O)CC4)c3)n[nH]c2C1` (single isomer, unassigned) [Example 110b, N-(1-((3-cyanophenyl)(1,1-dioxidotetrahydro-2H-thiopyran-4-yl)methyl)-1H-pyrazol-4-yl)-6,6-dimethyl-4,5,6,7-tetrahydro-1H-indazole-3-carboxamide] had an inhibition constant (Ki) of 3 nM. For `CC1(C)CCc2c(C(=O)Nc3cnn(C(c4ccccc4)C4CCOCC4)c3)n[nH]c2C1` (single isomer, unassigned) [Example 113a, 6,6-dimethyl-N-(1-(phenyl(tetrahydro-2H-pyran-4-yl)methyl)-1H-pyrazol-4-yl)-4,5,6,7-tetra hydro-1H-indazole-3-carboxamide] the value was 5 nM; for `CC1(C)CCc2c(C(=O)Nc3cnn(C(c4ccccc4)C4CCOCC4)c3)n[nH]c2C1` (single isomer, unassigned) [Example 113b, 6,6-dimethyl-N-(1-(phenyl(tetrahydro-2H-pyran-4-yl)methyl)-1H-pyrazol-4-yl)-4,5,6,7-tetra hydro-1H-indazole-3-carboxamide], 0.3 nM; for `Cn1ccnc1C(c1cccs1)n1cc(NC(=O)c2n[nH]c3c2CCC(C)(C)C3)cn1` (single isomer, unassigned) [Example 114a, 6,6-dimethyl-N-(1-((1-methyl-1H-imidazol-2-yl)(thiophen-2-yl)methyl)-1H-pyrazol-4-yl)-4,5,6,7-tetrahydro-H-indazole-3-carboxamide], 0.8 nM. In turn, `Cn1ccnc1C(c1cccs1)n1cc(NC(=O)c2n[nH]c3c2CCC(C)(C)C3)cn1` (single isomer, unassigned) [Example 114b, 6,6-dimethyl-N-(1-((1-methyl-1H-imidazol-2-yl)(thiophen-2-yl)methyl)-1H-pyrazol-4-yl)-4,5,6,7-tetrahydro-H-indazole-3-carboxamide] returned a Ki of 12 nM.

The compound `CC1(C)CCc2c(C(=O)Nc3cnn(C(c4cccc(Cl)c4)C4CCOCC4)c3)n[nH]c2C1` (single isomer, unassigned) [Example 115a, N-(1-((3-chlorophenyl)(tetrahydro-2H-pyran-4-yl)methyl)-1H-pyrazol-4-yl)-6,6-dimethyl-4,5,6,7-tetrahydro-1H-indazole-3-carboxamide] displayed a Ki of 0.2 nM.

In turn, `CC1(C)CCc2c(C(=O)Nc3cnn(C(c4cccc(Cl)c4)C4CCOCC4)c3)n[nH]c2C1` (single isomer, unassigned) [Example 115b, N-(1-((3-chlorophenyl)(tetrahydro-2H-pyran-4-yl)methyl)-1H-pyrazol-4-yl)-6,6-dimethyl-4,5,6,7-tetrahydro-1H-indazole-3-carboxamide] came in with an inhibition constant Ki of 7 nM. For `CC12Cc3[nH]nc(C(=O)Nc4cnn(C(c5cccnc5)C5CS(=O)(=O)C5)c4)c3CC1C2` (single isomer, unassigned) [Example 116a, N-(1-((1,1-dioxidothietan-3-yl)(pyridin-3-yl)methyl)-1H-pyrazol-4-yl)-5a-methyl-1,4,4a,5,5a,6-hexahydrocyclopropa[f]indazole-3-carboxamide] the value was < 0.1 nM; for `CC12Cc3[nH]nc(C(=O)Nc4cnn(C(c5cccnc5)C5CS(=O)(=O)C5)c4)c3CC1C2` (single isomer, unassigned) [Example 116b, N-(1-((1,1-dioxidothietan-3-yl)(pyridin-3-yl)methyl)-1H-pyrazol-4-yl)-5a-methyl-1,4,4a,5,5a,6-hexahydrocyclopropa[f]indazole-3-carboxamide], 2 nM.
